Test results as given in ChEMBL document CHEMBL1201862, “PubChem BioAssay data set” (2004).
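48-hour exposure; five concentrations; linearly interpolated endpoints. GI50: concentration for 50% inhibition of growth.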 The source made the active and inactive calls. No stated cut-off is given here; in the data, active = GI50 up to about 1.1 µM and inactive = higher.

Columns and labels:
Test in all cases: growth of human tumour cells (NCI), 48 h
[1] = tested on: 786-0
[2] = tested on: A498
[3] = tested on: A549
[4] = tested on: ACHN
[5] = tested on: CAKI-1
[6] = tested on: CCRF-CEM
[7] = tested on: COLO 205
[8] = tested on: DLD-1
[9] = tested on: DMS-273
[10] = tested on: EKVX
[11] = tested on: HCC 2998
[12] = tested on: HCT-15
[13] = tested on: HL-60
[14] = tested on: HOP-62
[15] = tested on: HOP-92
[16] = tested on: HT-29
[17] = tested on: IGROV-1
[18] = tested on: K562
[19] = tested on: KM12
[20] = tested on: LOX IMVI
[21] = tested on: LXFL 529
[22] = tested on: M14
[23] = tested on: M19-MEL
[24] = tested on: MOLT-4
[25] = tested on: Malme-3M
[26] = tested on: NCI-H226
[27] = tested on: NCI-H23
[28] = tested on: NCI-H460
[29] = tested on: NCI-H522
[30] = tested on: OVCAR-3
[31] = tested on: OVCAR-4
[32] = tested on: OVCAR-5
[33] = tested on: OVCAR-8
[34] = tested on: RPMI-8226
[35] = tested on: RXF 393
[36] = tested on: SF-268
[37] = tested on: SF-295
[38] = tested on: SF-539
[39] = tested on: SK-MEL-28
[40] = tested on: SK-MEL-2
[41] = tested on: SK-MEL-5
[42] = tested on: SK-OV-3
[43] = tested on: SNB-19
[44] = tested on: SNB-75
[45] = tested on: SNB-78
[46] = tested on: SR
[47] = tested on: SW-620
[48] = tested on: TK-10
[49] = tested on: U-251
[50] = tested on: UACC-257
[51] = tested on: UACC-62
[52] = tested on: UO-31
[53] = tested on: XF498
[54] = tested on: DMS-114
[55] = tested on: HCT-116
[56] = tested on: KM-20L2
[57] = tested on: SN12C

With CCOC(=O)C1C(c2ccc(Cl)cc2Cl)NC(c2ccc(C)cc2)C(C(=O)OC)S1(=O)=O (stereo not given) the GI50 [1] was 60.5 µM (inactive), the GI50 [2] was > 100 µM (inactive) and the GI50 [3] was 37.8 µM (inactive). The GI50 [4] was 80.4 µM (inactive), the GI50 [5] was > 100 µM (inactive) and the GI50 [6] was > 100 µM (inactive). For the same compound, the GI50 [7] was > 100 µM (inactive), the GI50 [8] was > 100 µM (inactive) and the GI50 [9] was 85.5 µM (inactive). For the same compound, the GI50 [10] was 85.9 µM (inactive), the GI50 [11] was > 100 µM (inactive) and the GI50 [12] was 59.2 µM. The GI50 [13] was 55.8 µM (inactive), the GI50 [14] was > 100 µM (inactive) and the GI50 [15] was 12 µM (inactive). The GI50 [16] was > 100 µM (inactive), the GI50 [17] was > 100 µM (inactive) and the GI50 [18] was 13.3 µM (inactive). The GI50 [19] was > 100 µM (inactive), the GI50 [20] was 81.5 µM (inactive) and the GI50 [21] was 54.6 µM (inactive). The GI50 [22] was > 100 µM (inactive), the GI50 [23] was 53.1 µM (inactive) and the GI50 [24] was 5.46 µM (inactive). For the same compound, the GI50 [25] was > 100 µM (inactive), the GI50 [26] was 76.4 µM (inactive) and the GI50 [27] was 66.8 µM (inactive). For the same compound, the GI50 [28] was 37.7 µM (inactive), the GI50 [29] was > 100 µM (inactive) and the GI50 [30] was > 100 µM (inactive). The GI50 [31] was > 100 µM (inactive), the GI50 [32] was > 100 µM (inactive) and the GI50 [33] was > 100 µM (inactive). The GI50 [34] was 74.3 µM (inactive), the GI50 [35] was > 100 µM (inactive) and the GI50 [36] was 72.9 µM (inactive). The GI50 [37] was > 100 µM (inactive), the GI50 [38] was > 100 µM (inactive) and the GI50 [39] was > 100 µM (inactive). For the same compound, the GI50 [40] was 95.1 µM (inactive), the GI50 [41] was 87.5 µM (inactive) and the GI50 [42] was > 100 µM (inactive). The GI50 [43] was > 100 µM (inactive), the GI50 [44] was 20.1 µM (inactive) and the GI50 [45] was > 100 µM (inactive). For the same compound, the GI50 [46] was 69 µM (inactive), the GI50 [47] was > 100 µM (inactive) and the GI50 [48] was > 100 µM (inactive). For the same compound, the GI50 [49] was > 100 µM (inactive), the GI50 [50] was 22.8 µM (inactive) and the GI50 [51] was 53.1 µM (inactive). For the same compound, the GI50 [52] was 37.9 µM (inactive) and the GI50 [53] was 3.33 µM (inactive).
In the case of COc1ccc(C(=O)C2CCC(C(=O)O)C2)cc1 (stereo not given), the GI50 [1] is reported as > 100 µM (inactive), the GI50 [2] is reported as > 100 µM (inactive) and the GI50 [3] is reported as > 100 µM (inactive). For the same compound, the GI50 [4] was > 100 µM (inactive), the GI50 [5] was > 100 µM (inactive) and the GI50 [6] was > 100 µM (inactive). The GI50 [7] was > 100 µM (inactive), the GI50 [8] was > 100 µM (inactive) and the GI50 [54] was > 100 µM (inactive). For the same compound, the GI50 [9] was > 100 µM (inactive), the GI50 [10] was > 100 µM (inactive) and the GI50 [11] was > 100 µM (inactive). The GI50 [55] was > 100 µM (inactive), the GI50 [12] was > 100 µM and the GI50 [13] was > 100 µM (inactive). The GI50 [14] was > 100 µM (inactive), the GI50 [15] was > 100 µM (inactive) and the GI50 [16] was > 100 µM (inactive). For the same compound, the GI50 [17] was > 100 µM (inactive), the GI50 [18] was > 100 µM (inactive) and the GI50 [56] was > 100 µM (inactive). The GI50 [19] was > 100 µM (inactive), the GI50 [20] was > 100 µM (inactive) and the GI50 [21] was > 100 µM (inactive). The GI50 [22] was > 100 µM (inactive), the GI50 [23] was > 100 µM (inactive) and the GI50 [24] was > 100 µM (inactive). For the same compound, the GI50 [25] was > 100 µM (inactive), the GI50 [26] was > 100 µM (inactive) and the GI50 [27] was > 100 µM (inactive). The GI50 [28] was > 100 µM (inactive), the GI50 [29] was > 100 µM (inactive) and the GI50 [30] was > 100 µM (inactive). The GI50 [31] was > 100 µM (inactive), the GI50 [32] was > 100 µM (inactive) and the GI50 [33] was > 100 µM (inactive). The GI50 [34] was > 100 µM (inactive), the GI50 [35] was > 100 µM (inactive) and the GI50 [37] was > 100 µM (inactive). For the same compound, the GI50 [38] was > 100 µM (inactive), the GI50 [39] was > 100 µM (inactive) and the GI50 [40] was > 100 µM (inactive). For the same compound, the GI50 [41] was > 100 µM (inactive), the GI50 [42] was > 100 µM (inactive) and the GI50 [57] was > 100 µM (inactive). For the same compound, the GI50 [43] was > 100 µM (inactive), the GI50 [44] was > 100 µM (inactive) and the GI50 [45] was > 100 µM (inactive). The GI50 [46] was > 100 µM (inactive), the GI50 [47] was > 100 µM (inactive) and the GI50 [48] was > 100 µM (inactive). For the same compound, the GI50 [49] was > 100 µM (inactive), the GI50 [50] was > 100 µM (inactive) and the GI50 [51] was > 100 µM (inactive). For the same compound, the GI50 [52] was > 100 µM (inactive).
With COC1C=CC(O)C(CO)O1 (stereo not given) the GI50 [3] was > 100 µM (inactive), the GI50 [4] was > 100 µM (inactive) and the GI50 [6] was > 100 µM (inactive). For the same compound, the GI50 [8] was > 100 µM (inactive), the GI50 [10] was > 100 µM (inactive) and the GI50 [11] was > 100 µM (inactive). For the same compound, the GI50 [55] was > 100 µM (inactive), the GI50 [12] was > 100 µM and the GI50 [13] was > 100 µM (inactive). The GI50 [14] was > 100 µM (inactive), the GI50 [15] was > 100 µM (inactive) and the GI50 [16] was > 100 µM (inactive). The GI50 [17] was > 100 µM (inactive), the GI50 [18] was > 100 µM (inactive) and the GI50 [56] was > 100 µM (inactive). The GI50 [19] was > 100 µM (inactive), the GI50 [20] was > 100 µM (inactive) and the GI50 [21] was > 100 µM (inactive). For the same compound, the GI50 [22] was > 100 µM (inactive), the GI50 [23] was > 100 µM (inactive) and the GI50 [24] was > 100 µM (inactive). For the same compound, the GI50 [25] was > 100 µM (inactive), the GI50 [27] was > 100 µM (inactive) and the GI50 [28] was > 100 µM (inactive). The GI50 [29] was > 100 µM (inactive), the GI50 [30] was > 100 µM (inactive) and the GI50 [31] was > 100 µM (inactive). For the same compound, the GI50 [32] was > 100 µM (inactive), the GI50 [33] was > 100 µM (inactive) and the GI50 [35] was > 100 µM (inactive). For the same compound, the GI50 [37] was > 100 µM (inactive), the GI50 [38] was > 100 µM (inactive) and the GI50 [39] was > 100 µM (inactive). The GI50 [40] was > 100 µM (inactive), the GI50 [41] was > 100 µM (inactive) and the GI50 [42] was > 100 µM (inactive). For the same compound, the GI50 [57] was > 100 µM (inactive), the GI50 [44] was > 100 µM (inactive) and the GI50 [45] was > 100 µM (inactive). For the same compound, the GI50 [46] was > 100 µM (inactive), the GI50 [47] was > 100 µM (inactive) and the GI50 [48] was > 100 µM (inactive). For the same compound, the GI50 [49] was > 100 µM (inactive), the GI50 [50] was > 100 µM (inactive) and the GI50 [51] was > 100 µM (inactive). The GI50 [52] was > 100 µM (inactive) and the GI50 [53] was > 100 µM (inactive).
